Test results taken from ChEMBL document CHEMBL1201862, “PubChem BioAssay data set” (2004).
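Each compound was tested at five concentrations against cells in 96-well plates for 48 hours. At the GI50, growth is halved.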 Active and inactive are the calls of the source. Cut-off read from the data, not from the text of the source: active = GI50 up to about 1.1 µM and inactive = higher.

How the values were obtained:
Assay in all cases: NCI anticancer screen, dose series, 48 h
SK-MEL-2 = test system: SK-MEL-2
OVCAR-8 = test system: OVCAR-8
UACC-257 = test system: UACC-257
K562 = test system: K562
HOP-62 = test system: HOP-62
OVCAR-3 = test system: OVCAR-3
LOX IMVI = test system: LOX IMVI
EKVX = test system: EKVX
SF-295 = test system: SF-295
SR = test system: SR
M14 = test system: M14
SF-268 = test system: SF-268
SF-539 = test system: SF-539
A498 = test system: A498
HCT-116 = test system: HCT-116
CCRF-CEM = test system: CCRF-CEM
A549 = test system: A549
KM12 = test system: KM12
MCF7 = test system: MCF7
PC-3 = test system: PC-3

Measured: GI50

Cc1nc2c(o1)/C(=N\c1ccccc1)c1nc(C)oc1/C2=N/c1ccccc1
inactive: SK-MEL-2 26.8 µM | OVCAR-8 15.3 µM | UACC-257 29.6 µM | K562 33 µM | HOP-62 13.1 µM | OVCAR-3 39.2 µM | LOX IMVI 28.2 µM | EKVX > 10 µM | SF-295 23.4 µM | SR 60.5 µM | M14 36.4 µM | SF-268 23.7 µM | SF-539 14.1 µM | A498 1.29 µM | HCT-116 19.4 µM | CCRF-CEM 61.1 µM | A549 24.8 µM

CCOc1ccc2ccccc2c1NC1=NCCO1
inactive: OVCAR-8 74.6 µM | UACC-257 34.6 µM | K562 19.8 µM | HOP-62 28.2 µM | EKVX 60.8 µM | SF-295 19.1 µM | SR 31.5 µM | KM12 24.9 µM | MCF7 37.8 µM | M14 37.2 µM | SF-268 > 100 µM | SF-539 49.3 µM | A498 35.1 µM | HCT-116 36.9 µM | CCRF-CEM 39.1 µM | A549 61 µM

Cn1c(=O)[nH]c2[nH]c3ccccc3c2c1=O
inactive: SK-MEL-2 > 100 µM | OVCAR-8 > 100 µM | UACC-257 > 100 µM | K562 > 100 µM | HOP-62 > 100 µM | OVCAR-3 > 100 µM | LOX IMVI > 100 µM | EKVX > 100 µM | SF-295 > 100 µM | SR > 100 µM | KM12 > 100 µM | MCF7 > 100 µM | M14 > 100 µM | SF-268 > 100 µM | SF-539 > 100 µM | A498 > 100 µM | HCT-116 > 100 µM | CCRF-CEM > 100 µM | A549 > 100 µM

CCOC(=O)C(NC(=O)CC)(Nc1cc(C)on1)C(F)(F)F (stereo not drawn)
inactive: SK-MEL-2 > 100 µM | OVCAR-8 > 100 µM | UACC-257 > 100 µM | K562 > 100 µM | LOX IMVI > 100 µM | EKVX > 100 µM | SR > 100 µM | M14 > 100 µM | SF-268 > 100 µM | SF-539 > 100 µM | HCT-116 > 100 µM | CCRF-CEM > 100 µM | PC-3 > 100 µM | A549 > 100 µM

CS(=O)(=O)c1nc(N)nc2nc[nH]c12
inactive: SK-MEL-2 > 100 µM | OVCAR-8 > 100 µM | UACC-257 > 100 µM | K562 > 100 µM | HOP-62 > 100 µM | OVCAR-3 > 100 µM | LOX IMVI > 100 µM | EKVX > 100 µM | SF-295 > 100 µM | SR > 100 µM | KM12 > 100 µM | M14 > 100 µM | SF-268 > 100 µM | SF-539 > 100 µM | A498 > 100 µM | HCT-116 > 100 µM | CCRF-CEM > 100 µM | A549 > 100 µM

CC1C2(C)OC(=N)C(C#N)(C(C)O2)C1(C#N)C#N (stereo not drawn)
inactive: SK-MEL-2 19.9 µM | OVCAR-8 31 µM | UACC-257 20.2 µM | K562 34.9 µM | OVCAR-3 24.5 µM | LOX IMVI 19.5 µM | EKVX 30.8 µM | SF-295 90.2 µM | KM12 49.8 µM | MCF7 24.8 µM | M14 18.3 µM | SF-268 30.8 µM | SF-539 22.1 µM | A498 87.7 µM | HCT-116 24.4 µM | CCRF-CEM 16 µM | PC-3 31.8 µM | A549 79.1 µM

CC(Cc1ccccc1)N(C)Cc1nc(C2CCC([N+](=O)[O-])O2)no1 (stereo not drawn)
inactive: OVCAR-8 12.7 µM | UACC-257 7.31 µM | HOP-62 7.43 µM | LOX IMVI 3.19 µM | EKVX 28.4 µM | SF-295 8.79 µM | SR 16.7 µM | KM12 4.55 µM | MCF7 4.06 µM | M14 6 µM | SF-268 28.1 µM | SF-539 3.32 µM | HCT-116 7.29 µM | CCRF-CEM 12.2 µM | A549 12.1 µM

COC(=O)C(=O)C(C(=O)C(=O)Nc1ccc([N+](=O)[O-])cc1C#N)c1nc2ccc([N+](=O)[O-])cc2nc1O (stereo not drawn)
inactive: SK-MEL-2 > 100 µM | OVCAR-8 > 100 µM | UACC-257 > 100 µM | K562 > 100 µM | HOP-62 94.2 µM | OVCAR-3 > 100 µM | LOX IMVI > 100 µM | EKVX 35.6 µM | SF-295 > 100 µM | SR 96.8 µM | KM12 > 100 µM | M14 > 100 µM | SF-268 > 100 µM | SF-539 > 100 µM | A498 52.2 µM | HCT-116 > 100 µM | CCRF-CEM > 100 µM | A549 > 100 µM

Cc1cc(NS(=O)(=O)c2ccc(Nc3c4ccccc4nc4c(C(=O)N5CCN(CCO)CC5)cccc34)cc2)no1
inactive: SK-MEL-2 > 100 µM | OVCAR-8 > 100 µM | UACC-257 > 100 µM | K562 57.8 µM | HOP-62 > 100 µM | OVCAR-3 > 100 µM | LOX IMVI 39.5 µM | EKVX > 100 µM | SF-295 > 100 µM | SR 66.5 µM | KM12 > 100 µM | M14 > 100 µM | SF-268 > 100 µM | SF-539 > 100 µM | A498 > 100 µM | HCT-116 > 100 µM | CCRF-CEM 43.9 µM | A549 > 100 µM

Cn1c(=O)c2ccc(-c3ccc(Br)cc3)nc2n(C)c1=O
inactive: SK-MEL-2 > 100 µM | OVCAR-8 > 100 µM | UACC-257 > 100 µM | K562 > 100 µM | HOP-62 > 100 µM | OVCAR-3 > 100 µM | LOX IMVI > 100 µM | EKVX 42.9 µM | SF-295 > 100 µM | SR > 100 µM | KM12 > 100 µM | M14 > 100 µM | SF-268 > 100 µM | SF-539 > 100 µM | A498 > 100 µM | HCT-116 68.9 µM | CCRF-CEM > 100 µM | A549 > 100 µM

O=C(CC1(O)C(=O)Nc2c(Cl)cc(Cl)cc21)c1cccc2ccccc12 (stereo not drawn)
inactive: SK-MEL-2 17.7 µM | OVCAR-8 18.1 µM | UACC-257 15.8 µM | K562 16.6 µM | HOP-62 16.5 µM | OVCAR-3 16.1 µM | LOX IMVI 17.7 µM | EKVX 16 µM | SF-295 15.7 µM | SR 16.9 µM | KM12 16 µM | M14 16.7 µM | SF-268 21.4 µM | SF-539 17.1 µM | A498 21.5 µM | HCT-116 15.2 µM | CCRF-CEM 17.8 µM | A549 15.1 µM

O=C(C=C1SCCS1)/C=C\c1ccc(Cl)cc1
inactive: SK-MEL-2 > 100 µM | OVCAR-8 > 100 µM | UACC-257 80.2 µM | K562 49.5 µM | HOP-62 > 100 µM | OVCAR-3 > 100 µM | LOX IMVI 53.8 µM | EKVX > 100 µM | SF-295 > 100 µM | SR 85.7 µM | KM12 87.1 µM | M14 > 100 µM | SF-268 > 100 µM | SF-539 > 100 µM | A498 > 100 µM | HCT-116 > 100 µM | CCRF-CEM 51.3 µM | A549 > 100 µM

CC(=O)O[C@H]1CCC2[C@@H]3CC[C@]4(C)CC(=O)C=C[C@]4(C)C3CC[C@@]21C (stereo partly drawn)
inactive: SK-MEL-2 20.8 µM | OVCAR-8 17.3 µM | UACC-257 20.6 µM | K562 20.2 µM | HOP-62 50.6 µM | OVCAR-3 17.5 µM | LOX IMVI 16.9 µM | EKVX 27.5 µM | SF-295 53.3 µM | KM12 20.6 µM | M14 19.2 µM | SF-268 21.2 µM | SF-539 17.7 µM | A498 44.7 µM | HCT-116 16.8 µM | CCRF-CEM 20.1 µM | PC-3 29.4 µM | A549 18.3 µM

CO[C@]12C[C@@H](CNC(=O)c3cc(Br)c[nH]3)O[C@H]1NC(=O)N2
inactive: SK-MEL-2 > 100 µM | OVCAR-8 > 100 µM | UACC-257 > 100 µM | K562 > 100 µM | HOP-62 > 100 µM | OVCAR-3 > 100 µM | EKVX > 100 µM | SF-295 > 100 µM | KM12 > 100 µM | MCF7 > 100 µM | M14 > 100 µM | SF-268 > 100 µM | SF-539 > 100 µM | A498 > 100 µM | HCT-116 > 100 µM | CCRF-CEM > 100 µM | PC-3 > 100 µM | A549 > 100 µM

CCN(CC)CCOc1ccc(/C=C(\C#N)c2ccc(OCCN(CC)CC)cc2)cc1
inactive: SK-MEL-2 21.4 µM | OVCAR-8 20.5 µM | UACC-257 16.9 µM | K562 3.37 µM | HOP-62 10.6 µM | OVCAR-3 22.4 µM | LOX IMVI 12.6 µM | EKVX > 51.2 µM | SF-295 13.4 µM | SR 7.89 µM | KM12 10.7 µM | M14 7.64 µM | SF-268 19.1 µM | SF-539 7.64 µM | A498 16.9 µM | HCT-116 5.87 µM | CCRF-CEM 3.44 µM | A549 19.1 µM

COC(=O)[C@H](Cc1c[nH]c2ccccc12)NC(=O)OCC1OC(n2cc(C)c(=O)[nH]c2=O)CC1N=[N+]=[N-] (stereo partly drawn)
inactive: SK-MEL-2 > 100 µM | OVCAR-8 > 100 µM | UACC-257 62.5 µM | K562 > 100 µM | HOP-62 > 100 µM | OVCAR-3 > 100 µM | LOX IMVI 98.6 µM | EKVX > 100 µM | SF-295 > 100 µM | KM12 > 100 µM | MCF7 > 100 µM | M14 > 100 µM | SF-268 > 100 µM | HCT-116 > 100 µM | CCRF-CEM 93.3 µM | PC-3 > 100 µM | A549 > 100 µM
